This note sets out measurements from ChEMBL document CHEMBL4483862, “Open-source discovery of chemical leads for next-generation chemoprotective antimalarials” (2018).

This test relates to Plasmodium berghei. The experiment in a line: Luciferase/luciferin-expressing antifolate-resistant parasites were used to infect a culture of HepG2 cells that were pre-incubated with compounds. Infected hepatocytes emit light due to the luciferase reaction. Assay results are presented as the percent inhibition of light emission compared to control. […]. The test is classed as functional. The note with it: sporozoite; for IC90: read-out: LUCIFERASE INFECTION ASSAY - IC90.

Setting [1] is: read-out: LUCIFERASE INFECTION ASSAY - IC50.

Each structure is given as a SMILES string. Bounds are passed on as bounds.

As usually defined, the IC50 is the concentration that inhibits the measured activity by half. A word on the IC90: it is the concentration needed for an effect of 90%. `CC(C)c1ccc(-n2c(SCc3ccccc3Cl)nnc2-c2ccc(C(C)(C)C)cc2)cc1`: the IC90 was determined as 4.57 µM. Also, the IC50 (PBLUC_HILL_SLOPE 6.16, PBLUC_R_SQUARED 0.605, read-out: LUCIFERASE INFECTION ASSAY - IC50) amounted to 3.2 µM.
Consider `Cc1cc(NC(=O)C(c2ccc(Cl)cc2)C(C)C)ccc1Br` (centres undefined), for which the IC90 is above 10 µM. The 50% inhibitory concentration (IC50) under setting [1] was above 10 µM.
On to `Cc1cc(N(C)C(C)c2ccc(-n3cnc4ccccc43)cc2)n2ncnc2n1` (centres undefined), for which the IC90 was above 10 µM. The IC50 (HEPG2TOX_HILL_SLOPE 9.21, HEPG2TOX_R_SQUARED 0.124, PBLUC_HILL_SLOPE 9.5, PBLUC_R_SQUARED 0.615, read-out: LUCIFERASE INFECTION ASSAY - IC50) was 8.2 µM.
On to `CCCCn1nnnc1CSc1nnc(-c2ccccc2F)n1Cc1ccccc1`, for which the IC90 was above 10 µM. Moreover, the IC50 under setting [1] is above 10 µM.
Consider `Oc1cc(C(F)(F)F)nc(-c2ccccn2)n1`, for which the IC90 was 5.54 µM. For the same compound, where the note is “HEPG2TOX_HILL_SLOPE 1.09, HEPG2TOX_R_SQUARED 0.904, PBLUC_HILL_SLOPE 3.05, PBLUC_R_SQUARED 0.293, read-out: LUCIFERASE INFECTION ASSAY - IC50”, the half-inhibitory concentration (IC50) is 8.2 µM.
Regarding `COC(=O)c1cc(NC(=O)C(C)(C)Oc2ccc(Cl)cc2)ccc1F`, the IC90 is above 10 µM. Also, the IC50 (PBLUC_HILL_SLOPE 3.63, PBLUC_R_SQUARED 0.0477, read-out: LUCIFERASE INFECTION ASSAY - IC50) is above 10 µM.
With `CC(C)c1ccc(NC(=O)N2[C@@H]3CC[C@@H](C3)[C@H]2c2nc3c(OCC4CC4)cccc3[nH]2)cc1`, the 90% effect concentration (IC90) was above 10 µM. The half-inhibitory concentration (IC50) (PBLUC_HILL_SLOPE 2.47, PBLUC_R_SQUARED 0.452, read-out: LUCIFERASE INFECTION ASSAY - IC50) amounted to 6.2 µM.
For `O=C(Nc1nc(-c2c[nH]c3ccccc23)cs1)C1CCN(S(=O)(=O)/C=C/c2ccccc2)CC1`, the concentration for an effect of 90% (IC90) was above 10 µM. In addition, under “FFLUC_HILL_SLOPE 3.31, FFLUC_R_SQUARED 0.738, HEPG2TOX_HILL_SLOPE 1.04, HEPG2TOX_R_SQUARED 0.854, PBLUC_HILL_SLOPE 3.38, PBLUC_R_SQUARED 0.26, read-out: LUCIFERASE INFECTION ASSAY - IC50”, the IC50 came to 5.31 µM.
For the compound `O=C(Cc1cc(Cl)c2c(c1)OCCCO2)NCc1ccco1`, the IC90 is above 10 µM. The IC50 under setting [1] was 6.35 µM.
As to `CC1=NN(c2ccccc2)C(=O)/C1=C\c1c(C)nn(-c2ccccc2)c1Sc1nc2ccccc2s1`, the 90% effect concentration (IC90) is above 10 µM. Besides, the IC50 (PBLUC_HILL_SLOPE 3.11, PBLUC_R_SQUARED 0.577, read-out: LUCIFERASE INFECTION ASSAY - IC50) came out at 6.6 µM.
For `Nc1cc(C(F)(F)F)cnc1Nc1ccc(Cl)cc1`, the IC90 was above 11.5 µM. Further, under setting [1], the concentration for half-maximal inhibition (IC50) is above 11.5 µM.
On to `COc1ccc(Cn2nc(C(=O)NC3CCCC3)c3c2CCN(C(=O)c2cc4ccccc4o2)C3)cc1`, for which the concentration for an effect of 90% (IC90) is above 6.62 µM. Moreover, the IC50 (PBLUC_HILL_SLOPE 3.73, PBLUC_R_SQUARED 0.19, read-out: LUCIFERASE INFECTION ASSAY - IC50) was found to be 4.5 µM.
With `Cc1cc(C(=O)OCC(=O)NC(=O)NC(C)(C)C)c(C)n1-c1ccccc1`, the IC90 was above 10 µM. Under “FFLUC_HILL_SLOPE 0.365, FFLUC_R_SQUARED 0.0382, read-out: LUCIFERASE INFECTION ASSAY - IC50”, the half-maximal inhibitory concentration (IC50) is above 10 µM.
With `N#Cc1ccc(F)c(CN2CCN(Cc3nc(-c4ccc(Cl)cc4)no3)CC2)c1`, the 90% effect concentration (IC90) is above 10 µM. The IC50 under setting [1] was above 10 µM.
`O=C1C(c2ccccc2)=C(Nc2cc(C(F)(F)F)cc(C(F)(F)F)c2)c2ccccc21`: the 90% effect concentration (IC90) came to 0.879 µM. Where the note is “FFLUC_HILL_SLOPE 4.26, FFLUC_R_SQUARED 0.731, HEPG2TOX_HILL_SLOPE 18.3, HEPG2TOX_R_SQUARED 0.933, PBLUC_HILL_SLOPE 2.24, PBLUC_R_SQUARED 0.855, read-out: LUCIFERASE INFECTION ASSAY - IC50”, the IC50 came to 0.329 µM.
As for `O=C1C=CC(=O)N1c1ccc(Oc2ccccc2)cc1`, the IC90 was above 12.4 µM. For the same compound, under “FFLUC_HILL_SLOPE 1.06, FFLUC_R_SQUARED 0.54, read-out: LUCIFERASE INFECTION ASSAY - IC50”, the IC50 is above 12.4 µM.
Take `N#Cc1cccc(CN2CCN3C(C(=O)Nc4ccc(-n5cccc5)cc4)=COC3=NC2=O)c1`: the IC90 is above 10 µM. Besides, the IC50 under setting [1] was above 10 µM.
Regarding `O=C1C(=O)N(Cc2ccccc2F)c2c1cccc2C(F)(F)F`, the 90% effect concentration (IC90) was above 10.2 µM. Under “FFLUC_HILL_SLOPE 1.03, FFLUC_R_SQUARED 0.0461, HEPG2TOX_HILL_SLOPE 15.2, HEPG2TOX_R_SQUARED 0.946, PBLUC_HILL_SLOPE 1.65, PBLUC_R_SQUARED 0.631, read-out: LUCIFERASE INFECTION ASSAY - IC50”, the half-inhibitory concentration (IC50) was 2.98 µM.
Take `c1cncc(-c2cn3c(-c4ccsc4)cnc3cn2)c1`: the IC90 was above 11.9 µM. In addition, the IC50 under setting [1] was above 11.9 µM.
On to `Cc1ccsc1/C=C/c1ccc2cccc(O)c2n1`, for which the 90% effect concentration (IC90) is above 10 µM. Under “PBLUC_HILL_SLOPE 14, PBLUC_R_SQUARED 0.406, read-out: LUCIFERASE INFECTION ASSAY - IC50”, the half-maximal inhibitory concentration (IC50) turned out to be 9.41 µM.
With `Cc1ccc(-c2n[nH]c(=S)n2CCC(=O)NC(C)c2ccc(F)c(F)c2)cc1` (centres undefined), the IC90 is above 10 µM. In addition, under setting [1], the IC50 is above 10 µM.
For the compound `OCc1cccc(-c2cnc3cnc(-c4ccccc4Oc4ccccc4)cn23)c1`, the IC90 is above 8.39 µM. In addition, under setting [1], the concentration for half-maximal inhibition (IC50) is above 8.39 µM.
In the case of `COc1cc(OC)cc(C(=O)Nc2nc3ccccn3c2C(=O)NC2CCCC2)c1`, the IC90 stood at 3.15 µM. Besides, where the note is “PBLUC_HILL_SLOPE 13.4, PBLUC_R_SQUARED 0.275, read-out: LUCIFERASE INFECTION ASSAY - IC50”, the IC50 came out at 2.68 µM.
Turning to `Cc1ccc(COC(=O)c2c(Cl)nc3sccn23)cc1`, the concentration for an effect of 90% (IC90) worked out at 0.397 µM. The IC50 (FFLUC_HILL_SLOPE 1.77, FFLUC_R_SQUARED 0.868, HEPG2TOX_HILL_SLOPE 1.9, HEPG2TOX_R_SQUARED 0.904, PBLUC_HILL_SLOPE 1.95, PBLUC_R_SQUARED 0.73, read-out: LUCIFERASE INFECTION ASSAY - IC50) was 0.129 µM.
As for `COc1ccc(-c2nc(C(=O)Nc3ccccc3N3CCN(C)CC3)cs2)cc1OC`, the IC90 is above 10 µM. In addition, the IC50 (PBLUC_HILL_SLOPE 1.24, PBLUC_R_SQUARED 0.639, read-out: LUCIFERASE INFECTION ASSAY - IC50) stood at 2.33 µM.
Consider `O=C(c1cc2cc(Cl)ccc2o1)N1CCN(Cc2ccc3c(c2)OCO3)CC1`, for which the 90% effect concentration (IC90) is above 8.27 µM. Moreover, the half-maximal inhibitory concentration (IC50) under setting [1] is above 8.27 µM.
Turning to `COc1ccc(C(CNC(=O)c2cc3cc(Br)ccc3[nH]2)N2CCCC2)cc1` (centres undefined), the IC90 is above 10 µM. In addition, the IC50 (PBLUC_HILL_SLOPE 3.58, PBLUC_R_SQUARED 0.137, read-out: LUCIFERASE INFECTION ASSAY - IC50) is above 10 µM.
